In US5650415A, “Quinoline compounds” (Sugen, Inc., priority 1995, dated 1997) one finds IC50 data, which are given here for 17 compounds.

This assay has as its target T1, IGF-1R (Homo sapiens, UniProt P08069).
T1 construct: expressed in transfected cells; host or cells: 3T3/IGF-1R cells (mouse 3T3 host)
Nature of the assay: Cellular IGF-1 Receptor ELISA. In kind it is cell-based. As to conditions: 3T3/IGF-1R cells. As to the method:
Cellular IGF-1 Receptor ELISA (Version I)
(1). The cell line used in this assay is 3T3/IGF-1R, a cell line which overexpresses IGF-1 Receptor.
(2). 3T3/IGF-1R is grown in an incubator with 5% CO2 at 37° C. The growth media is DMEM+10% FBS (heat inactivated)+2mM L-Glutamine.
(3). For ELISA plate coating, the anti-IGF-1R antibody named 17-69 is used. Antibodies are purified by the Enzymology Lab, SUGEN, Inc.
All the following steps are conducted at room temperature unless it is specifically indicated. All ELISA plate washings are performed by rinsing the plate with tap water three times, followed by one TBST rinse. Pat plate dry with paper towels.
(1). The cells, grown in tissue culture dish (10 cm, Corning 25020-100) to 80-90% confluence, are harvested with Trypsin-EDTA (0.25%, 0.5 ml/D-100, GIBCO).
(2). Resuspend the cells in fresh DMEM+10% FBS+2mM L-Glutamine, and transfer to 96-well tissue culture plate (Corning, 25806-96) at 20,000 cells/well (100 ul/well). Incubate for 1 day then replace medium to serum-free medium (90/ul) and incubate in 5% CO2 and 37° C. overnight.
(1). Coat the ELISA plate (Corning 25805-96) with Anti-IGF-1R Antibody at 0.5 ug/well in 100 ul PBS at least 2 hours.
(2). Remove the coating solution, and replace with 100 ul Blocking Buffer, and shake for 30 minutes. Remove the blocking buffer and wash the plate just before adding lysate.
(1). The drugs are tested in serum-free condition.
(2). Dilute drug stock (in 100% DMSO) 1:10 with DMEM in 96-well poly-propylene plate, and transfer 10 ul/well of this solution to the cells to achieve final drug dilution 1:100, and final DMSO concentration of 1.0%. Incubate the cells in 5% CO2 at 37° C. for 2 hours.
(3). Prepare fresh cell lysis buffer (HNTG HNTG 2 ml EDTA 0.1 ml Na3VO4 0.1 ml Na4P2O7 0.1 ml H20 7.3 ml HNTG* 10 ml.
(4). After drug incubation for two hours, transfer 10 ul/well of 200 nM IGF-1 Ligand in PBS to the cells (Final Conc=20 nM), and incubate at 5% CO2 at 37° C. for 10 minutes.
(5). Remove media and add 100ul/well HNTG* and shake for 10 minutes. Look at cells under microscope to see if they are adequately lysed.
(6). Use a 12-channel pipette to scrape the cells from the plate, and homogenize the lysate by repeat aspiration and dispense. Transfer all the lysate to the antibody coated ELISA plate [V.2.(2)], and shake for 1 hour.
(7). Remove the lysate, wash the plate, transfer anti-pTyr (1:3,000 with TBST) 100 ul/well, and shake for 30 minutes.
(7). Remove anti-pTyr, wash the plate, transfer detection antibody (1:3,000 with TBST) 100 ul/well, and shake for 30 minutes.
(8). Remove detection antibody, wash the plate, and transfer fresh ABTS/H2O2 (1.2 ul H2O2 to 10 ml ABTS) 100 ul/well to the plate to start color development.
(9). Measure OD (410 nm) in Dynatec MR5000, which is connected to Ingres.
In general terms: ELISA stands for enzyme-linked immunosorbent assay.

T1 sequence (P08069 31-1367): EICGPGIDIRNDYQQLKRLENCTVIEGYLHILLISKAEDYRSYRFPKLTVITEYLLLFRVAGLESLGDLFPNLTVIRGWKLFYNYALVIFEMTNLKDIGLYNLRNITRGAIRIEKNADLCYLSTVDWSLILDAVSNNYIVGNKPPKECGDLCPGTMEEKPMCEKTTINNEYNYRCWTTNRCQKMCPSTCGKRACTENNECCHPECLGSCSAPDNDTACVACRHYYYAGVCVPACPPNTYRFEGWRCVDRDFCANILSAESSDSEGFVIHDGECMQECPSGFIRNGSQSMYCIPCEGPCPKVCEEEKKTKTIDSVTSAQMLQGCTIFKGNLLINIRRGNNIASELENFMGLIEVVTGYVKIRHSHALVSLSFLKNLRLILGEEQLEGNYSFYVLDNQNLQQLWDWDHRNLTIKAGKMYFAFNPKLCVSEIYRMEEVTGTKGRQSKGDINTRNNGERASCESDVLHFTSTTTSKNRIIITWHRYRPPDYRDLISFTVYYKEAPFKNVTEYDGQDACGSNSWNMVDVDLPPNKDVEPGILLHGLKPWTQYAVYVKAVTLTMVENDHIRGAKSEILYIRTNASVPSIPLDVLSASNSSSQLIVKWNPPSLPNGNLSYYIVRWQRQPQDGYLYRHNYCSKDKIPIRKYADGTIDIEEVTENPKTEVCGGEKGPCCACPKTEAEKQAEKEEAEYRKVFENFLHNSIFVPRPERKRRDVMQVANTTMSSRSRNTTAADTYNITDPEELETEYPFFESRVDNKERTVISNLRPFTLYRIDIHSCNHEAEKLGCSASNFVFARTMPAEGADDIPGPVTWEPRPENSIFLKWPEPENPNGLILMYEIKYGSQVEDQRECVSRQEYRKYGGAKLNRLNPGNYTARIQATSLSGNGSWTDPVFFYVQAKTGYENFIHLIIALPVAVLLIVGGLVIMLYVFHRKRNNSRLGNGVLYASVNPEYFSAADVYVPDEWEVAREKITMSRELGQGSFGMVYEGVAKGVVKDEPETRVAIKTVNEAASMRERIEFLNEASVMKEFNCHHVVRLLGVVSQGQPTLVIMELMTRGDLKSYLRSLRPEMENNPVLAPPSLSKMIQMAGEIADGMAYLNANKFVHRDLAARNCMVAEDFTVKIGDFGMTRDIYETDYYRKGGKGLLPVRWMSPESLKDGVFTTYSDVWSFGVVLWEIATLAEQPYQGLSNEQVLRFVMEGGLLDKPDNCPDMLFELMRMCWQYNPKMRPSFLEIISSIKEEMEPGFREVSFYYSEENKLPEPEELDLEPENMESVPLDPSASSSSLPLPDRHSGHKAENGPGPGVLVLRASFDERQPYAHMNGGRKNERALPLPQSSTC

A word on the IC50: it is the midpoint of a concentration-inhibition curve. Turning to `CCOC(=O)c1cnc2c(F)ccc(F)c2c1Sc1cccc(C(F)(F)F)c1` [Compound A713, 3-Ethoxycarbonyl-5,8-difluoro-4-(3-trifluoromethylphenylmercapto)quinoline], the IC50 is more than 100 µM. Under `CCOC(=O)c1cnc2ccc(C(F)(F)F)cc2c1Nc1cccc(Br)c1` [Compound A716, 4-(3-Bromophenylamino)-3-ethoxycarbonyl-6-trifluoromethylquinoline] stands more than 100 µM. Compound `CCOC(=O)c1cnc2ccc(C(F)(F)F)cc2c1NCc1ccccc1C(F)(F)F` [Compound A717, 3-Ethoxycarbonyl-4-(2-trifluoromethylbenzylamino)-6-trifluoromethylquinoline] had an IC50 of more than 100 µM. `CCOC(=O)c1cnc2ccc(C(F)(F)F)cc2c1NCc1cccc(C(F)(F)F)c1` [Compound A718, 3-Ethoxycarbonyl-4-(3-trifluoromethylbenzylamino)-6-trifluoromethylquinoline]: the IC50 is more than 100 µM.

The compound `CCOC(=O)c1cnc2ccc(C(F)(F)F)cc2c1NCc1ccc(C(F)(F)F)cc1` [Compound A719, 3-Ethoxycarbonyl-4-(4-trifluoromethylbenzylamino)-6-trifluoromethylquinoline] showed an IC50 of more than 100 µM.

Turning to `CCOC(=O)c1cnc2ccc(C(F)(F)F)cc2c1Nc1ccccc1C(F)(F)F` [Compound A720, 3-Ethoxycarbonyl-4-(2-trifluoromethylphenylamino)-6-trifluoromethylquinoline], the IC50 is more than 100 µM. `CCOC(=O)c1cnc2ccc(C(F)(F)F)cc2c1Nc1cccc(C(F)(F)F)c1` [Compound A721, 3-Ethoxycarbonyl-4-(3-trifluoromethylphenylamino)-6-trifluoromethylquinoline]: the IC50 is more than 100 µM. Under `CCOC(=O)c1cnc2ccc(C(F)(F)F)cc2c1Nc1ccc(C(F)(F)F)cc1` [Compound A722, 3-Ethoxycarbonyl-4-(4-trifluoromethylphenylamino)-6-trifluoromethylquinoline] stands more than 100 µM; under `CCOC(=O)c1cnc2ccc(C(F)(F)F)cc2c1Nc1ccccc1C#N` [Compound A723, 4-(2-Cyanophenylamino)-3-ethoxycarbonyl-6-trifluoromethylquinoline], more than 100 µM; under `CCOC(=O)c1cnc2ccc(C(F)(F)F)cc2c1Nc1ccc(C#N)cc1` [Compound A725, 4-(4-Cyanophenylamino)-3-ethoxycarbonyl-6-trifluoromethylquinoline], more than 100 µM. Under `CCOC(=O)c1cnc2ccc(C(F)(F)F)cc2c1Nc1ccc(OC)c(OC)c1` [Compound A726, 3-Ethoxycarbonyl-4-(3,4-dimethoxyphenylamino)-6-trifluoromethylquinoline] stands more than 100 µM; under `CCOC(=O)c1cnc2ccc(C(F)(F)F)cc2c1Nc1ccc(Br)cc1` [Compound A727, 4-(4-Bromophenylamino)-3-ethoxycarbonyl-6-trifluoromethylquinoline], more than 100 µM. In turn, `CCOC(=O)c1cnc2ccc(C(F)(F)F)cc2c1Nc1cccc(Cl)c1` [Compound A728, 4-(3-Chlorophenylamino)-3-ethoxycarbonyl-6-trifluoromethylquinoline] yielded an IC50 of more than 100 µM. As to `CCOC(=O)c1cnc2ccc(C(F)(F)F)cc2c1Nc1ccc(Cl)cc1` [Compound A729, 4-(4-Chlorophenylamino)-3-ethoxycarbonyl-6-trifluoromethylquinoline], the IC50 is more than 100 µM.

In turn, `CCOC(=O)c1cnc2c(F)cc(F)cc2c1Sc1ccc(Cl)cc1` [Compound A730, 4-(4-Chlorophenylmercapto)-6,8-difluoro-3-ethoxycarbonylquinoline] showed an IC50 of more than 50 µM. On to `CCOC(=O)c1cnc2cc(Cl)c(F)cc2c1Sc1ccc(Cl)cc1` [Compound A731, 7-Chloro-4-(4-chlorophenylmercapto)-6-fluoro-3-ethoxycarbonylquinoline], for which the IC50 is more than 50 µM.

Compound `CCOC(=O)c1cnc2c(F)ccc(F)c2c1Sc1ccc(Cl)cc1` [Compound A732, 4-(4-Chlorophenylmercapto)-5,8-difluoro-3-ethoxycarbonylquinoline] registered an IC50 of more than 100 µM.
